Laboratory results published in ChEMBL document CHEMBL1201862, “PubChem BioAssay data set” (2004).
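All cell lines were grown in 96-well plates and treated with compound for 48 hours. GI50 marks 50% less growth.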 The source made the active and inactive calls. Cut-off read from the data, not from the text of the source: active = GI50 up to about 1.1 µM and inactive = higher.

How the values were obtained:
Assay in all cases: DTP human tumour cell line panel, 48 h
[1] = tested on: HOP-62
[2] = tested on: UO-31
[3] = tested on: K562
[4] = tested on: OVCAR-3
[5] = tested on: Malme-3M
[6] = tested on: SW-620
[7] = tested on: M14
[8] = tested on: COLO 205
[9] = tested on: NCI/ADR-RES
[10] = tested on: NCI-H23
[11] = tested on: SK-MEL-28
[12] = tested on: SK-OV-3
[13] = tested on: NCI-H522
[14] = tested on: HOP-92
[15] = tested on: LOX IMVI
[16] = tested on: KM12
[17] = tested on: A498
[18] = tested on: NCI-H460
[19] = tested on: OVCAR-4
[20] = tested on: CAKI-1

Measured: GI50

COC(=O)/C=C1\C(CO[Si](C)(C)C(C)(C)C)OC(n2cc(C)c(=O)n(C)c2=O)C1O[Si](C)(C)C(C)(C)C (stereo unspecified)
inactive: [1] > 100 µM | [2] > 100 µM | [3] > 100 µM | [4] > 100 µM | [5] > 100 µM | [6] > 100 µM | [7] > 100 µM | [8] > 100 µM | [9] > 100 µM | [10] > 100 µM | [11] > 100 µM | [12] > 100 µM | [13] 78 µM | [14] > 100 µM | [15] 89.5 µM | [16] > 100 µM | [17] > 100 µM

COc1c2c(c3c(c1OC)c(=O)c1ccccc1n3C)OCO2
inactive: [1] > 100 µM | [2] > 100 µM | [3] 81.5 µM | [4] > 100 µM | [6] > 100 µM | [18] 36.1 µM | [7] > 100 µM | [8] > 100 µM | [19] 76.2 µM | [9] > 100 µM | [10] > 100 µM | [11] > 100 µM | [12] > 100 µM | [20] > 100 µM | [13] > 100 µM | [14] > 100 µM | [15] > 100 µM | [16] > 100 µM | [17] > 100 µM

Oc1c(Cl)c(Cl)c(Cl)c(Cl)c1Cl [PENTACHLOROPHENOL]
inactive: [1] 25.4 µM | [2] 17 µM | [3] 26.4 µM | [4] 18.7 µM | [6] 24.5 µM | [18] > 100 µM | [7] 20.9 µM | [8] 31 µM | [19] 21.8 µM | [9] 17.9 µM | [10] 21.8 µM | [11] 24 µM | [12] 45.6 µM | [20] 18.3 µM | [13] 24 µM | [14] 18.6 µM | [15] 17.9 µM | [16] 19.5 µM | [17] 19 µM

CN1C(=O)C23CCCCC2CC1(c1ccccc1)S3 (stereo unspecified)
inactive: [1] > 100 µM | [2] 63 µM | [3] 71.1 µM | [4] 50.9 µM | [5] > 100 µM | [6] > 100 µM | [7] > 100 µM | [8] 71.9 µM | [19] 34.2 µM | [9] 38.5 µM | [10] 66.8 µM | [11] > 100 µM | [12] > 100 µM | [20] 68.2 µM | [13] 76.2 µM | [14] 60.7 µM | [15] 79.8 µM | [16] > 100 µM | [17] > 100 µM

O=C1CCCC[C@H]1C(O)CC1CC(=O)N(c2ccccc2)C(=O)C1 (stereo partly specified)
inactive: [1] > 100 µM | [2] > 100 µM | [3] > 100 µM | [4] > 100 µM | [5] > 100 µM | [6] > 100 µM | [18] > 100 µM | [7] > 100 µM | [19] > 100 µM | [9] > 100 µM | [10] > 100 µM | [11] > 100 µM | [20] > 100 µM | [13] > 100 µM | [14] > 100 µM | [15] > 100 µM | [16] > 100 µM | [17] > 100 µM

COc1c(-c2nc3ccc(N4CCN(C)CC4)nc3[nH]2)cc(OC)c2[nH]c(COC(C)=O)nc12
inactive: [1] 25 µM | [2] 30.7 µM | [3] 1.52 µM | [5] 28.1 µM | [6] 27.9 µM | [18] 31.6 µM | [7] 19.5 µM | [8] 28.7 µM | [19] 32.4 µM | [9] > 100 µM | [10] 32.2 µM | [11] 49.1 µM | [12] 14.5 µM | [20] > 100 µM | [13] 37.1 µM | [14] > 100 µM | [15] 25.9 µM | [16] 23.9 µM | [17] 93.1 µM
